Assay results taken from ChEMBL document CHEMBL1140659, “Respiratory syncytial virus fusion inhibitors. Part 5: Optimization of benzimidazole substitution patterns towards derivatives with improved activity” (Bioorg Med Chem Lett, 2007).

What was measured:
[1] = system: Respiratory syncytial virus; assay: Antiviral activity against RSV long A with F1 protein K394R mutation in HEp2 cells; format: functional, organism-based
[2] = Cytotoxicity against human HEp2 cells; format: cell-based, HEp-2
[3] = Therapeutic index, ratio of CC50 for HEp2 to EC50 for RSV long A; conditions: human, HEp2 cells; read-out: Ratio CC50/EC50

Row | SMILES | EC50 [1] [µM] | CC50 [2] [µM] | selectivity ratio [3]
1 | CC(C)CCn1c(Cn2c(=O)n(C(C)C)c3ccccc32)nc2ccc(CN)cc21 | 0.095 | 28.1 | 296
2 | CC(C)CCn1c(Cn2c(=O)n(C(C)C)c3ccccc32)nc2cc(CF)ccc21 | 0.047 | 37.3 | 793
3 | CC(C)CCn1c(Cn2c(=O)n(CC(=O)OC(C)(C)C)c3ccccc32)nc2cc(/C(N)=N\O)ccc21 | 0.016 | 19.8 | 1240
4 | C=C(C)n1c(=O)n(Cc2nc3cc(C(=O)O)ccc3n2CCC(C)C)c2ccccc21 | 264 | 30 | 0.11
5 | CC(C)CCn1c(Cn2c(=O)n(C(C)C)c3ccccc32)nc2cc(-c3nn[nH]n3)ccc21 | 225 | 2 | 0.009
6 | C=C(C)n1c(=O)n(Cc2nc3ccccc3n2CCC(C)C)c2ccccc21 | 0.004 | 24.6 | 6160
7 | CC(C)CCn1c(Cn2c(=O)n(C(C)C)c3ccccc32)nc2cc(-c3ncon3)ccc21 | 21.6 | 223 | 10.3
8 | C=Cc1ccc2c(c1)nc(Cn1c(=O)n(C(C)C)c3ccccc31)n2CCC(C)C | 0.63 | 6.52 | 10.3
9 | O=c1n(Cc2nc3ccccc3n2CCCCO)c2cnccc2n1C1CC1 | > 20 | – | –
10 | CC(C)CCn1c(Cn2c(=O)n(C(C)C)c3ccccc32)nc2cccc(CO)c21 | 246 | 246 | 1
11 | CC(C)CCn1c(Cn2c(=O)n(C(C)C)c3ccccc32)nc2cc(CN)ccc21 | 0.002 | 3.92 | 1960
12 | CC(C)CCn1c(Cn2c(=O)n(CC(=O)OC(C)(C)C)c3ccccc32)nc2cc(C(=N)N)ccc21 | 0.009 | 7.9 | 878
13 | CC(C)CCn1c(Cn2c(=O)n(C(C)C)c3ccccc32)nc2cc(CO)ccc21 | 0.05 | 31.6 | 632
14 | C=C(C)n1c(=O)n(Cc2nc3cc(/C(N)=N\O)ccc3n2CCC(C)C)c2ccccc21 | 0.005 | 3.47 | 694
15 | C=C(C)n1c(=O)n(Cc2nc3cc(C(C)=O)ccc3n2CCC(C)C)c2ccccc21 | 0.179 | 0.74 | 4.1
16 | COC(=O)c1cccc2nc(Cn3c(=O)n(C(C)C)c4ccccc43)n(CCC(C)C)c12 | 230 | 25.3 | 0.11
17 | CC(=O)c1ccc2c(c1)nc(Cn1c(=O)n(C)c3ccccc31)n2CCC(C)C | 0.193 | 5.2 | 39.8
18 | C=C(C)n1c(=O)n(Cc2nc3cc(C(=N)N)ccc3n2CCC(C)C)c2ccccc21 | 0.004 | 10.8 | 2700
19 | CNCc1ccc2nc(Cn3c(=O)n(C(C)C)c4ccccc43)n(CCC(C)C)c2c1 | 187 | 4.81 | 0.026

Row | SMILES | EC50 [1] [µM] | CC50 [2] [µM] | selectivity ratio [3]
20 | CC(C)CCn1c(Cn2c(=O)n(C(C)C)c3ccccc32)nc2cc(CN(C)C)ccc21 | 183 | 5.65 | 0.031
21 | CC(C)CCn1c(Cn2c(=O)n(C(C)C)c3ccccc32)nc2cc(/C(N)=N\O)ccc21 | 0.111 | 9.14 | 82.2
22 | CC(C)CCn1c(Cn2c(=O)n(C(C)C)c3ccccc32)nc2cc(CNS(C)(=O)=O)ccc21 | 0.725 | 30.8 | 42.4
23 | CC(=O)NCc1ccc2c(c1)nc(Cn1c(=O)n(C(C)C)c3ccccc31)n2CCC(C)C | 0.631 | 178 | 282
24 | CC(C)CCn1c(Cn2c(=O)n(C(C)C)c3ccccc32)nc2cc(CCN)ccc21 | 4.33 | 11 | 2.54
25 | CC(C)CCn1c(Cn2c(=O)n(C(C)C)c3ccccc32)nc2cc(C(N)=O)ccc21 | 0.166 | 23.4 | 141
26 | COC(=O)c1cccc2c1nc(Cn1c(=O)n(C(C)C)c3ccccc31)n2CCC(C)C | 230 | 49.2 | 0.213
27 | CC(C)CCn1c(Cn2c(=O)n(C(C)C)c3ccccc32)nc2cc(CNC3CC3)ccc21 | 0.363 | 17.2 | 47.3
28 | CC(C)CCn1c(Cn2c(=O)n(C(C)C)c3ccccc32)nc2c(CCCN)cccc21 | 213 | 2.34 | 0.011
29 | CC(C)CCn1c(Cn2c(=O)n(C(C)C)c3ccccc32)nc2ccc(CN(C)C)cc21 | 182 | 26.7 | 0.026
30 | CC(C)CCn1c(Cn2c(=O)n(CC(=O)OC(C)(C)C)c3ccccc32)nc2cc(C#N)ccc21 | 2.55 | 32.2 | 12.6
31 | CC(C)CCn1c(Cn2c(=O)n(C(C)C)c3ccccc32)nc2ccc(C(=O)O)cc21 | 238 | 125 | 0.525
32 | CC(C)CCn1c(Cn2c(=O)n(C(C)C)c3ccccc32)nc2cc(N)ccc21 | 0.125 | 32.2 | 258
33 | CC(C)CCn1c(Cn2c(=O)n(C(C)C)c3ccccc32)nc2cc(C(C)(C)N)ccc21 | 0.694 | 3.27 | 4.71
34 | COCc1cccc2c1nc(Cn1c(=O)n(C(C)C)c3ccccc31)n2CCC(C)C | 7.5 | 26.7 | 3.56
35 | CC(C)CCn1c(Cn2c(=O)n(C(C)C)c3ccccc32)nc2ccc(C(N)=O)cc21 | 123 | 49.9 | 0.406
36 | CC(C)CCn1c(Cn2c(=O)n(C(C)C)c3ccccc32)nc2ccc(CCN)cc21 | 7.11 | 57 | 8.02
37 | CC(C)CCn1c(Cn2c(=O)n(C(C)C)c3ccccc32)nc2cc(Br)ccc21 | 0.018 | 18.1 | 1010
38 | CC(C)CCn1c(Cn2c(=O)n(C(C)C)c3ccccc32)nc2cc(CC#N)ccc21 | 0.117 | 13.3 | 114

Row | SMILES | EC50 [1] [µM] | CC50 [2] [µM] | selectivity ratio [3]
39 | CC(C)CCn1c(Cn2c(=O)n(C(C)C)c3ccccc32)nc2cc(C#N)ccc21 | 0.476 | 7.93 | 16.6
40 | CNCc1ccc2c(c1)nc(Cn1c(=O)n(C(C)C)c3ccccc31)n2CCC(C)C | 0.057 | 1.48 | 26
41 | CC(C)CCn1c(Cn2c(=O)n(C(C)C)c3ccccc32)nc2cc(C(=O)N(C)C)ccc21 | 24.8 | 25.6 | 1.03
42 | CC(C)CCn1c(Cn2c(=O)n(C(C)C)c3ccccc32)nc2c(CCC#N)cccc21 | 234 | 2.24 | 0.096
43 | CC(C)CCn1c(Cn2c(=O)n(C(C)C)c3ccccc32)nc2cccc(N=[N+]=[N-])c21 | 3.7 | 57.9 | 15.6
44 | COC(=O)c1ccc2c(c1)nc(Cn1c(=O)n(C(C)C)c3ccccc31)n2CCC(C)C | 230 | 33.7 | 0.15
45 | CC(C)CCn1c(Cn2c(=O)n(C(C)C)c3ccccc32)nc2c(CO)cccc21 | 0.82 | 22 | 26.8
46 | CC(C)CCn1c(Cn2c(=O)n(C(C)C)c3ccccc32)nc2c(CCN)cccc21 | 0.23 | 3.92 | 17
47 | CC(C)CCn1c(Cn2c(=O)n(C(C)C)c3ccccc32)nc2c(CC#N)cccc21 | 241 | 116 | 0.482
48 | CC(C)CCn1c(Cn2c(=O)n(C(C)C)c3ccccc32)nc2c(CN)cccc21 | 0.715 | 7 | 9.78
49 | CC(C)CCn1c(Cn2c(=O)n(C(C)C)c3ccccc32)nc2cc(C(=O)O)ccc21 | 238 | 17.3 | 0.07
50 | CC(C)CCn1c(Cn2c(=O)n(C)c3ccccc32)nc2cc(-c3nnn(C)n3)ccc21 | 239 | 2.97 | 0.012
51 | CC(C)CCn1c(Cn2c(=O)n(C(C)C)c3ccccc32)nc2cccc(CN)c21 | 192 | 11 | 0.058
52 | CC(C)CCn1c(Cn2c(=O)n(C(C)C)c3ccccc32)nc2ccc(C#N)cc21 | 0.044 | 10 | 228
53 | CCc1ccc2c(c1)nc(Cn1c(=O)n(C(C)C)c3ccccc31)n2CCC(C)C | 0.692 | 18.5 | 26.8
54 | CC(C)CCn1c(Cn2c(=O)n(C(C)C)c3ccccc32)nc2ccc(CO)cc21 | 0.134 | 81.6 | 609
55 | CC(C)CCn1c(Cn2c(=O)n(CC(=O)O)c3ccccc32)nc2cc(C(=N)N)ccc21 | 0.031 | 173 | 5570
56 | C=C(C)n1c(=O)n(Cc2nc3cc(C#N)ccc3n2CCC(C)C)c2ccccc21 | 0.057 | 1.48 | 26
57 | N=C(N)c1ccc2nc(Cc3nc4ccc(C(=N)N)cc4[nH]3)[nH]c2c1 | 100 | – | –
